{"source": "paper PMC10485003", "about": "“Antibiotic hyper-resistance in a class I aminoacyl-tRNA synthetase with altered active site signature motif” (Nature Communications, 2023)", "origin": "cited, not measured here", "tested_on": "IleRS", "design": "method as in PMID 18234501", "details": "monic acid A alone, without the nonanoic acid part; cited from earlier work"}
{"smiles": "CC(=CC(=O)O)CC1OCC(CC2OC2C(C)C(C)O)C(O)C1O", "note": "(stereo not shown) [monic acid A]", "values": [{"measurement": "inhibitor activity", "value": "cannot act as an inhibitor"}]}
